Article PMC9589286, “Ruthenium polypyridine complexes with triphenylamine groups as antibacterial agents against Staphylococcus aureus with membrane-disruptive mechanism” (Frontiers in Chemistry, 2022)
≈ marks a conversion by molar mass, not a printed value.

Key:
Staphylococcus aureus [1] = test: Nucleic acid leakage, 260 nm absorbing material; format: cell-based; conditions: 100 μg/ml, 2 h
Description: To verify the membrane damage, the loss of 260 nm absorbing material was carried out ([Yu et al., 2021]). Briefly, overnight cultured bacteria were diluted 1:1000 in fresh TSB and shaken at 37°C for about 5 h until the exponential stage was reached. The supernatant was removed by centrifugation, then the bacteria were resuspended to OD600 = 1 with PBS, which was further treated with Ru-3 or polymyxin B and centrifuged after 2 h to precipitate bacterial cells. Subsequently, the loss of 260 nm absorbing material, including the release of DNA and RNA in the filtrate, was measured at 260 nm.

Staphylococcus aureus [2] = test: Checkerboard assay with antibiotics; format: cell-based; conditions: for MIC of antibiotics: antibiotic alone, S. aureus; for FICI: combination of the antibiotic with Ru-3, S. aureus
Description: Firstly, the MIC of all selected antibiotics was determined by the above method. Staphylococcus aureus was cultured overnight and diluted 1000 times with fresh TSB. Then 200 μL the diluted bacterial suspension, 25 μL Ru-3 of gradient concentrations and 25 μL antibiotics of gradient concentrations were mixed in 96 well plates and further cultured at 37°C for 20 h. MIC values of single drug and the best combination effect (combination of MICA and MICB) were measured. Graphpad prism software was used to draw the checkerboard map and isoline map.

Staphylococcus aureus [3] = test: Drug resistance study, 20 generations at sub inhibitory concentration; format: cell-based; conditions: 20 passages at sublethal concentration
Description: After Staphylococcus aureus was cultured for 5 h, the bacteria were diluted 1000 times with fresh TSB and the MIC of Ru-3 was measured. The bacterial solution grown at the sub inhibitory concentration of compound Ru-3 was inoculated into fresh TSB medium for 5 h, then the MIC was measured, and the above procedure was repeated for 20 generations. Ampicillin was used as the control.

Galleria mellonella = test: Toxicity in insect model Galleria mellonella; format: in vivo; conditions: larvae, 120 h
Description: Based on the excellent antibacterial effect of Ru-3 in vitro, its biosafety was further evaluated. Firstly, the hemolytic activity of ruthenium complexes on rabbit red blood cells was measured to study their toxicity. […] In view of its good compatibility with mammalian red blood cells, the toxicity of Ru-3 to eukaryotes was also studied. Herein, Ru-3 was tested with Gallery melonella larvae. […] When the concentration of Ru-3 was 64 mg kg^−1, the survival rate was still 75%.
FIGURE 15 Test results of Ru compounds toxicity (A) % hemolysis at 256 μg ml^−1 of Ru compounds. (B) Kaplan-Meier survival curves. […] The larvae were incubated at 37.5°C and live/dead scores were conducted at 120 h (C) H&E staining images of the infected tissues with different treatments.

Staphylococcus aureus [4] = test: MIC by microdilution in TSB broth; format: cell-based; conditions: 20 h
Description: Antibacterial activity was evaluated by measuring MIC (minimum inhibitory concentration) and MBC (minimum bactericidal concentration) values. The MIC value was measured by the microdilution method using TSB broth with 96 well plates ([Carlsen et al., 1981]) and the MBC value was determined by LB plates. In brief, the overnight cultured bacteria were 1: 1000 diluted with fresh medium to get a bacterial suspension. After incubation at 37°C for 20 h, the growth of bacteria is monitored by observing the turbidity of the culture. The bacterial solution was diluted as above method and the complexes were incubated with bacterial solution for 2 h. Then 100 μL bacterial solution was taken for plate coating. The Staphylococcus aureus growth inhibition trend in the presence of complexes was obtained. The MBC values of complexes were determined by LB plates after culturing in the same method for 24 h. All experiments were controlled with sterile water and repeated in parallel at least three times.

rabbit red blood cells = test: Hemolytic activity on rabbit red blood cells; format: cell-based; conditions: 37°C, 30 min
Description: Obtain red blood cells from fresh sterile rabbit blood and rabbit blood was washed three times with PBS. Ru(II) complexes in 950 µL phosphoric acid buffer (PBS) of different concentrations and 50 μL red blood cells were added into a 1.5 ml sample tube, incubated at 37°C for 30 min. The negative control was red blood cell suspension containing only PBS, and the positive control was PBS containing 0.1% (V/V) Triton X-100. After incubating the mixture was centrifugated (2000 rpm for 2 min) and the supernatant (200 μL) was transfered to another 96 well plate. Finally, the hemolysis rate was calculated by measuring the absorbance at 540 nm.

[5] = Partition coefficient, shake flask 1-octanol/PBS; format: physicochemical
Description: The partition coefficients of all complexes were determined by standard shake flask method in 1-octanol and buffer liquid system ([Yang et al., 2021]). In brief, the octanol/water partition coefficient is obtained by the incubation of 2 ml of 25 μg ml^−1 ruthenium complex 1-octanol and 2 ml PBS samples. After shaking the solution for 6 h, the samples were stood for 2 h. The absorbance of octanol complex at 282 nm before and after oscillation was measured. The absorbance of 1-octanol before oscillation minus the absorbance of 1-octanol after oscillation is the absorbance of the complex in water. Each experiment was repeated three times. The partition coefficient is reported as the number of octanol divided by the number of water.

Compound	MIC of antibiotics (Staphylococcus aureus [2]) [µg/mL]	FICI (Staphylococcus aureus [2])	MIC (Staphylococcus aureus [4]; S. aureus, 37°C) [µg/mL]	also measured
Polymyxin B [reference compound]	–	–	–	Δ% Nucleic acid leakage (Staphylococcus aureus [1]): 23%
NC[C@H]1O[C@H](O[C@H]2[C@H](O)[C@@H](O[C@H]3O[C@H](CO)[C@@H](O)[C@H](N)[C@H]3O)[C@H](N)C[C@@H]2N)[C@H](O)[C@@H](O)[C@@H]1O [Kanamycin]	50.00	0.38	–	–
CC1(C)S[C@@H]2[C@H](NC(=O)[C@H](N)c3ccccc3)C(=O)N2[C@H]1C(=O)O [Ampicillin, reference compound]	0.39	0.38	–	increase of MIC value after 20 generations (Staphylococcus aureus [3]): more than 1024 times; Kaplan-Meier survival curve (Galleria mellonella): coincides with control’s curve
[Ru(dmob)2PMA] (PF6)2 [Ru-1]	–	–	16	% Hemolysis at 256 μg/ml (rabbit red blood cells): 8%; LgP [5]: 1.14; logD o/w [5]: ca. 1.1445
CNC(C)C1CCC(N)C(OC2C(N)CC(N)C(OC3OCC(C)(O)C(NC)C3O)C2O)O1 (centres unmarked) [Gentamicin]	6.25	0.38	–	–
O=C(N[C@H](CO)[C@H](O)c1ccc([N+](=O)[O-])cc1)C(Cl)Cl [Chloramphenicol]	6.25	0.50	–	–
[Ru(bpy)2PMA] (PF6)2 [Ru-2]	–	–	8	% Hemolysis at 256 μg/ml (rabbit red blood cells): 16%; LgP [5]: 0.97; logD o/w [5]: ca. 0.9681
Cc1ccc(N(c2ccc(C)cc2)c2ccc(-c3nc4c5cccnc5c5ncccc5c4[nH]3)cc2)cc1 [PMA]	–	–	>256	–
O.O.O.[Cl][Ru]([Cl])[Cl] [RuCl3∙3H2O]	–	–	>256	–
CN(C)[C@@H]1C(O)=C(C(N)=O)C(=O)[C@@]2(O)C(O)=C3C(=O)c4c(O)cccc4[C@@](C)(O)[C@H]3C[C@@H]12 [Tetracycline]	0.39	0.50	–	–
CN[C@H](CC(C)C)C(=O)N[C@H]1C(=O)N[C@@H](CC(N)=O)C(=O)N[C@H]2C(=O)N[C@H]3C(=O)N[C@H](C(=O)N[C@H](C(=O)O)c4cc(O)cc(O)c4-c4cc3ccc4O)[C@H](O)c3ccc(c(Cl)c3)Oc3cc2cc(c3O[C@@H]2O[C@H](CO)[C@@H](O)[C@H](O)[C@H]2O[C@H]2C[C@](C)(N)[C@H](O)[C@H](C)O2)Oc2ccc(cc2Cl)[C@H]1O [Vancomycin]	2	1.00	–	MIC (Staphylococcus aureus [4]; Staphylococcus aureus): 2 µg/mL (≈ 1.38 µM)
